Laboratory results taken from patent US9163032B2, “Esters of DCPLA and methods of treatment using the same” (Blanchette Rockefeller Neurosciences Institute, priority 2011, dated 2015).

What was measured:
synaptophysin = assay: Synaptophysin expression in primary hippocampal neurons (immunofluorescence, Western Blot); format: cell-based, rat
Protocol: (§1) Cells were grown in two chambered slides (Nunc, USA) at low density. For immunofluorescence staining, the cells were washed with PBS (pH 7.4) and fixed with 4% paraformaldehyde for 4 min. Following fixation, the cells were blocked and permeabilized with 5% serum and 0.3% Triton X-100 in 1×PBS for 30 min. Cells were washed three times with 1×PBS and incubated with primary antibodies for 1 hr at 1:100 dilution. After the incubation, the slides were again washed three times in 1×PBS and were incubated with the FITC anti-mouse IgG and Rhodamine anti-rabbit IgG for 1 hr at 1:400 dilution. The cells were further washed and stained with DAPI (4′,6-diamidino-2′-phenylindole, dihydrochloride) (Thermo Scientific, USA) to stain the nucleus. Finally, the slides were washed and mounted in Pro Long Gold antifade mounting solution (Invitrogen, USA) and were viewed under a LSM 710 Meta confocal microscope (Zeiss) at 350 nm, 490 nm, and 540 nm excitation and 470 nm, 525 nm, and 625 nm emission for DAPI, FITC, and Rhodamine respectively. Six individual fields at 63× oil lens magnification were analyzed for the mean fluorescence intensity (MFI) in each channel.
Cells were harvested in homogenizing buffer containing 10 mM Tris-Cl (pH 7.4), 1 mM PMSF (phenylmethylsulfonyl fluoride), 1 mM EGTA, 1 mM EDTA, 50 mM NaF, and 20 μM leupeptin, and were lysed by sonication. The homogenate was centrifuged at 100,000×g for 15 min at 4° C. to obtain the cytosolic fraction (supernatant) and membrane (pellet). The pellet was resuspended in the homogenizing buffer by sonication. For whole cell protein isolation from primary neurons, the homogenizing buffer contained 1% Triton X-100. Protein concentration was measured using the Coomassie Plus (Bradford) Protein Assay kit (Pierce, USA). Following quantification, 20 μg of protein from each sample was subjected to SDS-PAGE analysis in a 4-20% gradient Tris-Glycine gel (Invitrogen, USA). The separated protein was then transferred to a nitrocellulose membrane. The membrane was blocked with 5% BSA at room temperature for 15 min and was incubated with primary antibody overnight at 4° C. After the incubation, it was washed three times with TBS-T (Tris Buffered Saline-Tween 20) and further incubated with alkaline phosphatase conjugated secondary antibody (Jackson Immunoresearch Laboratories, USA) at 1:10000 dilution for 45 min. The membrane was finally washed three times with TBS-T and developed using the 1-step NBT-BCIP substrate (Pierce, USA). The blot was imaged in an ImageQuant RT-ECL (GE Life Sciences, Piscataway, N.J.) and densitometric quantification was performed using IMAL software (Blanchette Rockefeller Neurosciences Institute, Morgantown, W. Va.). For translocation assays, PKC activation was represented as the percentage of total protein in the membrane (membrane/cytosol+membrane).
To estimate the synaptic damage caused by the ASPDs on primary hippocampal neurons, the expression of synaptophysin (a presynaptic marker) and PSD-95 (a postsynaptic marker) was measured by immunofluorescence staining. […] Following a 20 hr incubation period, the cells were stained for nucleus, PSD-95, and synaptophysin. Expression levels were calculated as the change of percentage in mean fluorescence intensity compared to untreated cells.
Primary neurons, treated and untreated, were immunostained for MAP-2, synaptophysin, and PSD-95 to determine the synaptic integrity. […] Following a 20 hr incubation period, the cells were stained for MAP-2, PSD-95, and synaptophysin as described above.

[1] = test system: primary human cortical neurons; assay: 40 day culture of human primary cortical neurons: survival, synapses, branching; format: cell-based; conditions: 100 nM
Protocol: To examine the effects of PKC-ε activation, cultured human cortical neurons in serum-free artificial medium were exposed to 100 nM DCPLA-ME added every three days, along with 50% medium replacement, for 40 days. More specifically, human primary cortical neurons were grown in Neuronal Medium (ScienCell Cat No#1521) containing neuronal growth supplement (NGS) (Sciencell Cat No#1562).
Cells were plated on poly-l-lysine (0.001%) coated plates at a density of >10000 cells/cm2. Half of the media was replaced by new media every 3 days. DCPLA-ME was dissolved in 100% ethanol and added at 100 nM final concentration. Fresh DCPLA-ME (100 nM) was added every 3 days during media change. The experiments were continued for 40 days.
Human primary neurons (ScienCell Research Laboratories, USA) were thawed and plated on poly-L-lysine coated plates at a density of 10,000 cells per cm^2 and were maintained in neuronal medium (DMEM+high glucose+neuronal growth supplement, ScienCell Research Laboratories, USA) following the recommended method. Primary human neurons were then treated with either DCPLA-ME (100 nM) or bryostatin 1 (0.27 nM) for 40 days. Fresh drug was added every third day with 50% media change.

PKC-ε = PKC-ε level in primary neurons (immunofluorescence, Western Blot); format: cell-based, rat
Protocol: as §1
Cells were harvested in homogenizing buffer containing 10 mM Tris-Cl (pH 7.4), 1 mM PMSF (phenylmethylsulfonyl fluoride), 1 mM EGTA, 1 mM EDTA, 50 mM NaF, and 20 μM leupeptin, and were lysed by sonication. The homogenate was centrifuged at 100,000×g for 15 min at 4° C. to obtain the cytosolic fraction (supernatant) and membrane (pellet). The pellet was resuspended in the homogenizing buffer by sonication. […] Protein concentration was measured using the Coomassie Plus (Bradford) Protein Assay kit (Pierce, USA). Following quantification, 20 μg of protein from each sample was subjected to SDS-PAGE analysis in a 4-20% gradient Tris-Glycine gel (Invitrogen, USA). […] The blot was imaged in an ImageQuant RT-ECL (GE Life Sciences, Piscataway, N.J.) and densitometric quantification was performed using IMAL software (Blanchette Rockefeller Neurosciences Institute, Morgantown, W. Va.). […]

Molecule	synaptophysin mean fluorescence intensity (synaptophysin; 50 nM ASPD + 100 nM DCPLA-ME, 20 hr)	number of synapses ([1]; 30 day old neurons)	Expression levels of PKCε, PSD-95 and synaptophysin ([1]; 40 days, compared to control or bryostatin 1-treated cells)	PKC-ε protein level (Western Blot) (PKC-ε; ASPD-treated primary neurons, 100 nM DCPLA-ME)	synaptophysin mean fluorescence intensity (synaptophysin; 50 nM ASPD, 20 hr)	synaptophysin mean fluorescence intensity (synaptophysin; 50 nM ASPD, 20 hr, listed as ASPDs)	decrease in synaptophysin intensity (synaptophysin; 50 nM, 20 hr) [%]	decrease of synaptophysin expression (Western Blot) (synaptophysin; ASPD) [%]	synaptophysin expression (Western Blot) (synaptophysin; ASPD, relative to control) [%]	PKC-ε immunofluorescence level (PKC-ε; ASPD, 20 hr, primary neurons)
CCCCCC1CC1CC1CC1CCCCCCCC(=O)OC (stereo not shown) [DCPLA-ME, DCPLA methyl ester]	87.48±3.75 % of control	significantly increased	significantly higher	restored the PKC-ε protein level to normal	–	–	–	–	–	–
ASPD: Amylospheroids from Aβ1-42, 100 kDa filter retentate, containing 39 monomers on average	–	–	–	–	63.3±3.8 % of control	62.45±6.74 % of control	40	26	73.30	60.81±5.85 % compared to control
